The source of these data is patent US20230116733A1, “NOVEL INDAZOLE DERIVATIVE AND USE THEREOF” (KOREA RESEARCH INSTITUTE OFCHEMICAL TECHNOLOGY, priority 2019, published 2023).

“Also recorded” adds a separate entry of the source.

In one data set the test system is A549. In words: Assay for anticancer activity, cell viability (Cell Counting Kit-8). To be noted: A549 cells, 10 μM compound, 3 days. It counts as cell-based. The method, then: (§1) Assay for anticancer activity was conducted as follows. Corresponding cancer cells were seeded at a density of 4,000 cells/well into 96-well plates and stabilized for 24 hours. Thereafter, the cells in each well were treated with 10 μM of the each of the compounds for 3 days. Then, cell viability was assayed using Cell Counting Kit-8 from Dojindo.

A further data set concerns HepG2. The data set is described as above. To be noted: for Cell viability (% of Con. 10 μM) HepG2: HepG2 cells, 10 μM compound, 3 days. The data set is classed as cell-based. The method, then:
as §1

Data set [1] concerns YAP. The data set can be described thus: Phosphorylation of YAP protein in liver cancer cells (FIG. 1). It counts as cell-based.
Data set [2] has as its system YAP. The data set can be described thus: p-YAP level in ovarian cancer cell line A2780 (FIG. 1). The data set is classed as cell-based.
The target of data set [3] is T1, TRIB2 (Homo sapiens, UniProt Q92519).
T1 sequence (Q92519 1-343): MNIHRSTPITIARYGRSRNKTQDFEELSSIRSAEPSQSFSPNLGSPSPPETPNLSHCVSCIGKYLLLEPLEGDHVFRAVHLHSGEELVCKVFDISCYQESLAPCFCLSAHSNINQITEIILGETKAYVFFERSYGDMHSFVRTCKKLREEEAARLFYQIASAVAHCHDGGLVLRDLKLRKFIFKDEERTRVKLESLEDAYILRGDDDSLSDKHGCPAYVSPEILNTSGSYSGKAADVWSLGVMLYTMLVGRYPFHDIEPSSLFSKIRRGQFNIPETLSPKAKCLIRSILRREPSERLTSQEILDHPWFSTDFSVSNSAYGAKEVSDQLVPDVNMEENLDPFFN
The data set can be described thus: TRIB2 kinase activity assay (Eurofins, 33P-ATP filter binding). It counts as biochemical. On the set-up: purchased Eurofins. To be noted: human TRIB2, 15 μM gamma-33P-ATP, 120 minutes at room temperature; read-out: TRIB2 Kimase activity assay IC50. How it is done: TRIB2 kinase activity assay was conducted in Eurofins. […] Afterward, the reaction was terminated with 0.5% phosphoric acid.

The target of data set [4] is T1, TRIB2. The data set can be described thus: Phosphorylation of TRIB2 protein in liver cancer cells (FIG. 1). It counts as cell-based. More on the design: endogenous in cells; host or cells: HepG2. To be noted: liver cancer cell line HepG2, dose-dependent.
The subject of the next data set is K562. The data set can be described thus: Assay for anticancer activity, cell viability (Cell Counting Kit-8). It counts as cell-based. Particulars: K562 cells, 10 μM compound, 3 days. The method, then: as §1
On the technique in general: Formazan colour is commonly taken as a measure of viable cells.

The next data set concerns U937. The description is as above. The data set is classed as cell-based. To be noted: U937 cells, 10 μM compound, 3 days. The method, then:
as §1

By IC50 is commonly meant the concentration that inhibits the measured activity by half. Consider `O=C(Nc1ccncc1)c1n[nH]c2ccc(-c3cccnc3F)cc12` [Compound 17, 5-(2-fluoropyridin-3-yl)-N-(pyridin-4-yl)-1H-indazole-3-carboxamide], for which, in the data set on A549, the “Cell viability (% of Con. 10 μM) A549” value was 17 % of Con. Also, the “inhibition of the growth of liver cancer cell line HepG2 (in words)” value in the data set on HepG2 (HepG2) is on record as “highly inhibitory”. In addition, in the data set on HepG2, the “Cell viability (% of Con. 10 μM) HepG2” value is 15 % of Con. Moreover, in the data set on YAP [1], the YAP protein degradation entry is “promote YAP protein degradation” and the “inhibitory activity against YAP (in words)” value was “inhibitory activity against YAP”. Moreover, the “phosphorylation of YAP protein” value in the data set with YAP [1] (liver cancer cell line HepG2, dose-dependent, FIG. 1) is reported as “decreases the phosphorylation”. Besides, the “level of p-YAP” value in the data set on YAP [2] is “reduce the level of p-YAP; also recorded: has an inhibitory activity against YAP”. Moreover, on TRIB2 [3], the IC50 lay within 1 to 10 nM. Also, the “phosphorylation of TRIB2 protein” value at TRIB2 [4] is “decreases the phosphorylation”.
Turning to `O=C(NC1CCNCC1)c1n[nH]c2ccc(-c3cccnc3F)cc12` [Compound 2, 5-(2-fluoropyridin-3-yl)-N-(piperidin-4-yl)-1H-indazole-3-carboxamide], the “Cell viability (% of Con. 10 μM) K562” value in the data set with K562 is recorded as 16 % of Con. Moreover, the “Cell viability (% of Con. 10 μM) U937” value in the data set on U937 is listed as 12 % of Con. The IC50 at TRIB2 [3] lay in the range of 10 to 100 nM.
For `O=C(NC1CCNCC1)c1n[nH]c2ccc(-c3cccnc3)cc12` [Compound 4, N-(piperidin-4-yl)-5-(pyridin-3-yl)-1H-indazole-3-carboxamide], the “Cell viability (% of Con. 10 μM) K562” value in the data set on K562 is on record as 41 % of Con. The “Cell viability (% of Con. 10 μM) U937” value in the data set on U937 is listed as 50 % of Con. On TRIB2 [3], the IC50 is 10 to 100 nM.
Take `O=Cc1ccc(-c2ccc3[nH]nc(C(=O)Nc4ccncc4)c3c2)o1` [Compound 47, 5-(5-formylfuran-2-yl)-N-(pyridin-4-yl)-1H-indazole-3-carboxamide]: the “Cell viability (% of Con. 10 μM) A549” value in the data set on A549 was 55 % of Con. The “Cell viability (% of Con. 10 μM) HepG2” value with HepG2 is 32 % of Con. Further, the half-maximal inhibitory concentration (IC50) on TRIB2 [3] lay in the range of 10 to 100 nM.
As to `CC(C)(C)OC(=O)N1CCC(NC(=O)c2n[nH]c3ccc(-c4cccnc4F)cc23)CC1` [Compound 1, tert-butyl-4-(5-(2-fluoropyridin-3-yl)-1H-indazole-3-carboxamido)piperidine-1-carboxylate], in the data set with K562, the “Cell viability (% of Con. 10 μM) K562” value is listed as 49 % of Con. Further, the “Cell viability (% of Con. 10 μM) U937” value in the data set on U937 is given as 34 % of Con. Besides, the IC50 at TRIB2 [3] fell in the range of 10 to 100 nM.
As for `CCCn1cc(-c2ccc3[nH]nc(C(=O)Nc4ccncc4)c3c2)cn1` [Compound 36, 5-(1-propyl-1H-pyrazol-4-yl)-N-(pyridin-4-yl)-1H-indazole-3-carboxamide], the “Cell viability (% of Con. 10 μM) A549” value with A549 was 28 % of Con. Further, the “Cell viability (% of Con. 10 μM) HepG2” value in the data set on HepG2 is 15 % of Con. Besides, the IC50 at TRIB2 [3] was 1 to 10 nM.
For `Cn1cc(-c2ccc3[nH]nc(C(=O)Nc4ccncc4)c3c2)cn1` [Compound 29, 5-(1-methyl-1H-pyrazol-4-yl)-N-(pyridin-4-yl)-1H-indazole-3-carboxamide], the “Cell viability (% of Con. 10 μM) A549” value in the data set on A549 is recorded as 31 % of Con. For the same molecule, the “Cell viability (% of Con. 10 μM) HepG2” value with HepG2 was 16 % of Con. Moreover, the half-inhibitory concentration (IC50) at TRIB2 [3] is 10 to 100 nM.
As to `O=C(Nc1ccncc1)c1n[nH]c2ccc(-c3ccoc3)cc12` [Compound 34, 5-(furan-3-yl)-N-(pyridin-4-yl)-1H-indazole-3-carboxamide], in the data set with A549, the “Cell viability (% of Con. 10 μM) A549” value is 51 % of Con. Besides, the “Cell viability (% of Con. 10 μM) HepG2” value in the data set with HepG2 is given as 49 % of Con. In addition, the IC50 on TRIB2 [3] was 10 to 100 nM.
